Experimental data as given in patent US8129527B2, “Analogs of dehydrophenylahistins and their therapeutic use” (Nereus Pharmacuticals, Inc., priority 2006, dated 2012).
pIC50: −log10 of the molar value. Read-outs that look alike come from different tables or passages of the source.

What was measured:
HuVEC cells = assay: Tubulin staining assay, 200 nM, 30 min (Example 15); format: cell-based, human
Protocol: Human umbilical vein endothelial cells (HuVECs; Cambrex CC2519A) were maintained at subconfluent densities in EGM-2 (Cambrex) media. […] For tubulin staining assays, HuVEC cells were seeded at a density of 3×10^4 cells/ml in EGM-2 on tissue culture compatible coverslips (Fisher). The plates were returned to the incubator for 2 days.
Stock (20 mM) solutions of the test compounds were prepared in 100% DMSO. 400× concentrated dilutions of the compounds were prepared in 100% DMSO. 5 μl volumes of the dilutions were added to individual wells resulting in a final concentration of 200 nM. […] The plates were returned to the incubator for 30 minutes.
The cells were rinsed in dPBS before fixation in 10% (v/v) neutral buffered formalin for 10 minutes at room temperature. Following fixation, α-tubulin was visualized by indirect immunofluorescence. Specifically, the cells were permeabilized in 0.2% (v/v) triton X-100/dPBS for 10 minutes. The cells were washed prior to transferring the coverslips to a humidified chamber, the coverslips were blocked for two hours in antibody buffer (2% (w/v) BSA/0.1% (v/v) Tween 20/dPBS). The coverslips were incubated with 50 μl of 0.1 μg/ml mouse α-tubulin (Molecular Probes) in antibody buffer for 1 hour before washing and incubation with 50 μl of 1 μg/ml goat anti-mouse FITC (Jackson ImmunoResearch Laboratories) for one hour in the dark. […]

MAP-rich microtubules = assay: Microtubule mean length distributions, transmission electron microscopy; format: biochemical, bovine; details: in words
Protocol: Transmission electron microscopy was used to determine the mean length distribution of microtubules in the absence or presence of tested agent. At 75 minutes and prior to sedimentation, 10 μl aliquots from the polymer mass experiments were fixed by dilution into 290 μl PEM100-buffered 0.2% glutaraldehyde. Thirty microliters of fixed sample was settled onto formvar-coated 150 ICG mesh electron microscope grids for 90 seconds. Excess sample was wicked off with Whatman filter paper. Thirty microliters of cytochrome C (1 mg/ml) was applied for 30 seconds to enhance protofilament resolution and facilitate negative staining. Uranyl acetate (1.5%) was applied for 20 seconds and the excess was wicked off Grids were viewed in a Jeol electron microscope-1200 EX11 at 2000× and 30,000× magnification. The Zeiss MOPIII was used to determine microtubule length distributions and mean lengths for at least 100 microtubules per sample.

[1] = test system: N202 mammary tumor vasculature; assay: Murine syngeneic pseudo-orthotopic breast cancer model, dorsal skinfold chamber
From the text: A murine syngeneic “pseudo-orthotopic” breast cancer model was used to address these issues. […] To create the “pseudo-orthotopic milieu,” the coverslip of a dorsal skinflap chamber was removed and small pieces of mammary fatpad from donor mice were implanted into the chamber. On top of the fatpad graft, tumor spheroids containing N202 mammary tumor cells transduced with Histone (H2B)-green fluorescent protein (GFP) were applied. The use of H2B-GFP transduced cells allows for visualizing tumor growth and monitoring mitosis and apoptosis.
Fluorescence video microscopy allows for the relatively non-invasive study of tumor microcirculation in conscious mice.
Tumor area, blood flow rate, and vascular density within and surrounding the tumor were visualized. Real-time observations were recorded at various time-points using still photos and video microscopy.

P22 rat sarcoma [2] = format: in vivo, rats; details: 15 mg/kg IP
Protocol: In contrast, blood flow in non-tumor tissues was affected to a much lesser extent at 1 hour (see FIG. 35).

[3] = test system: A549 human non small cell lung tumor; assay: A549 Human Lung Tumor Xenograft Model; format: in vivo, nude mice; details: Lung A549 (1 study); KPU-02 7.5 mg/kg ip qdx5 + Taxotere Days 1, 3, 5
Protocol: (§1) Animals used were (exceptions are indicated for individual studies): female nude mice (nu/nu) between 5 and 6 weeks of age (˜20 g, Harlan); group size was 9-10 mice per group unless otherwise indicated.
(§2) Selected novel compounds were administered as monotherapy via the intraperitoneal (i.p.) route at the doses indicated for the individual study; for the combination studies the selected reference chemotherapy agents were injected 15-30 min prior to the compound.
(§3) Saline dilutions are used to achieve the injection concentrations used for the reference compounds.
Animals were implanted s.c. by trocar with fragments of A549 tumors harvested from s.c. growing tumors in nude mice hosts. When the tumor size reached 5 mm×5 mm (about 10-17 days) the animals were matched into treatment and control groups.

[4] = test system: MDA-231 human breast tumor; assay: MDA-231 Human Breast Tumor Orthotopic Xenograft Model (mammary fat pad); format: in vivo, nude mice; details: Breast MDA-231 (1 study); KPU-02 7.5 mg/kg ip Days 1, 4, 8, 11, 15 + Paclitaxel qdx5
Protocol: The animals used were: female nude mice (nu/ni) (MDA-231 study) or B6D2F1 (B16-F10 studies) mice between 5 and 6 weeks of age (˜20 g, Harlan); group size was 10 mice per group unless otherwise indicated.
The cell lines used were: MDA-MB-231 human breast tumor and B16-F10 murine melanoma cells.
NPI compounds were administered as monotherapy via the intraperitoneal route at the doses indicated for the individual study; for the combination studies the selected reference chemotherapy agents were injected 15-30 min prior to the NPI compound.
Female nude mice were injected in the mammary fat pad with 2×10^6 MDA-231 cells harvested from in vitro cell culture. When the tumor size reached 5 mm×5 mm (about 14-28 days) the animals were matched into treatment and control groups. The study then proceeded as described for the HT-29 model, using paclitaxel as the standard chemotherapy agent.
In this model unless otherwise noted for the individual study, the test compounds were administered via the intraperitoneal route on Days 1, 4, 8, 11 and 15 (q3dx5); paclitaxel was administered via the intraperitoneal route on Days 1-5 (qdx5).
This model involves the placement of the human tumor tissue into the mouse mammary fat pad, a surrogate of the natural environment. In this manner the possibility of a positive effect due to a specific action on the subcutaneous vascular bed is avoided.

HT-29 human colon tumor = assay: HT-29 Human Colon Tumor Xenograft Model; format: in vivo
Protocol: as §2, §3
Animals were implanted subcutaneously (s.c.) by trocar with fragments of HT-29 tumors harvested from s.c. growing tumors in nude mice hosts. When the tumor size reached 5 mm×5 mm (about 10-17 days) the animals were matched into treatment and control groups. Mice were weighed twice weekly and tumor measurements were obtained using calipers twice weekly, starting on Day 1. The tumor measurements were converted to estimated mg tumor weight using the formula (W^2×L)/2. When the estimated tumor weight of the control group reached an average of 1000 mg the mice were weighed, sacrificed and the tumor removed.

[5] = test system: MCF7 cells, GFP-alpha-tubulin; assay: Analysis of microtubule dynamics, time-lapse microscopy; format: cell-based, human; details: concentrations effecting 25% or 50% of maximal mitotic block
MCF7 cells = assay: Immunofluorescence microscopy of spindle and interphase microtubules; format: cell-based, human; details: at the IC50 for mitotic block, 20 hours
Protocol: MCF7 human breast carcinoma cells (American Type Culture Collection, Manassas, Va.) stably transfected with GFP-alpha-tubulin (Clontech, Palo Alto, Calif.) were cultured in Dulbecco's modified Eagle's medium supplemented with 5% fetal bovine serum, 0.1% penicillin/streptomycin and nonessential amino acids (Sigma) in 250-ml tissue culture flasks or 35-mm six-well plates (doubling time, 29 hours) at 37° C. in 5% CO2.
Cells were prepared as for mitotic progression, except that cells were seeded onto poly-L-lysine (50 μg/ml, Sigma) treated coverslips. On the day of staining, cells were rinsed in PBS and fixed in 10% formalin overnight at 37° C. Cells were rinsed in PBS, permeabilized in methanol at −20° C., and hydrated with PBS. Coverslips were treated with 20% normal goat serum in PBS/BSA (1%) for 1 h at room temperature. Cells were incubated in a mouse monoclonal cocktail of anti-alpha- and beta-tubulin, DM1A/DM1B diluted in PBS/BSA for 1 hour at room temperature, then stained with FITC-conjugated secondary antibody and DAPI. Coverslips were mounted using Prolong antifade media (Molecular Probes, Eugene Oreg.).

MCF-7 human breast tumor = assay: MCF-7 Human Breast Tumor Xenograft Model; format: in vivo, nude mice; details: Breast MCF-7 (2 studies); KPU-02 7.5 mg/kg ip qdx5 + Taxotere Days 1, 3, 5
Protocol: as §1, §2, §3
Female nude mice (˜20 g) were implanted s.c. with 21-day release estrogen (0.25 mg) pellets 24 hours prior to the s.c. implantation with MCF-7 tumor fragments (harvested from s.c. tumors in nude mice hosts). The study then proceeded as described for the HT-29 model, using taxotere as the standard chemotherapy agent.
In this model unless otherwise noted for the individual study, the novel compounds were injected via the intraperitoneal route daily on Days 1-5, inclusive (qdx5); taxotere was administered intravenously on Days 1, 3 and 5 (qodx3).
The doses of the compounds were administered on Days 1, 2, 3, 4, and 7; Taxotere was administered on Days 1, 3 and 7.

P22 rat sarcoma [6] = assay: Tumor necrosis in the P22 rat sarcoma model; details: 7.5 and 15 mg/kg IP, 24 hours post-dose
tubulin = tubulin (Bos taurus, UniProt Q6B856); assay: Photoaffinity labeling study of tubulin; format: binding; details: UV 365 nm, +/- colchicine
From the text: KPU-244 and KPU-244-B1 can both be photoactivated by UV light, resulting in covalent linkage to any protein via the photoreactive benzophenone group. In one embodiment, tubulin is photoaffinity labeled with KPU-244 or KPU-244-B1. Upon irradiation with UV light, the benzophenone group forms a free radical at the carbonyl group, followed by H-abstraction in the acceptor protein, insertion of the benzophenone radical into the abstracted site, and recombination to form the labeled protein.
UV-irradiated and control samples were visualized by 15% SDS-PAGE followed by Western blotting. Biotin-labeled molecular weight markers (Amersham Pharmacia Biotech) were included in each gel. Each gel was electroblotted onto a nitrocellulose membrane (Hybond-ECL, Amersham Pharmacia). The gels were then stained with Coomassie Brilliant Blue (Bio-Rad laboratories) to verify that equivalent amounts of tubulin were loaded in each lane. The nitrocellulose membrane was incubated with 5% skim milk in 100 mM phosphate-buffered saline (PBS, pH 7.4) at room temperature for 1 hour, then washed with 100 mM PBS (pH 7.4) containing 0.1% Tween 20 (PBS-T) for 20 min one time, then twice for 10 min each. The membrane was then incubated with streptavidin-horseradish peroxidase conjugate (diluted 1000-fold with PBS-T) for 1 hour at room temperature, and washed with PBS-T as described above. […]

HT-29 human colon cells = assay: Tumor cytotoxicity assay, resazurin fluorescence, 48 h (Example 6); format: cell-based; details: Example 23
[7] = test system: bovine brain microtubule protein; assay: Tubulin polymerization assay, turbidity (Example 21); format: biochemical; details: 5 μM in 1% DMSO
Protocol: Polymerization of bovine brain microtubule protein (Cytoskeleton, Inc., Denver, Colo.) was monitored by an increase in turbidity at 37° C. in microtubule buffer (80 mM PIPES, pH 6.8, 1 mM MgCl2, 1 mM EGTA, 1 mM GTP, 10% glycerol). […] Turbidity was measured as an increase in optical density at 340 nm with a thermo-controlled spectrophotometer (model 680XR microplate Reader™, Bio-Rad Laboratories).

tubulin, sequence (Q6B856 whole entry): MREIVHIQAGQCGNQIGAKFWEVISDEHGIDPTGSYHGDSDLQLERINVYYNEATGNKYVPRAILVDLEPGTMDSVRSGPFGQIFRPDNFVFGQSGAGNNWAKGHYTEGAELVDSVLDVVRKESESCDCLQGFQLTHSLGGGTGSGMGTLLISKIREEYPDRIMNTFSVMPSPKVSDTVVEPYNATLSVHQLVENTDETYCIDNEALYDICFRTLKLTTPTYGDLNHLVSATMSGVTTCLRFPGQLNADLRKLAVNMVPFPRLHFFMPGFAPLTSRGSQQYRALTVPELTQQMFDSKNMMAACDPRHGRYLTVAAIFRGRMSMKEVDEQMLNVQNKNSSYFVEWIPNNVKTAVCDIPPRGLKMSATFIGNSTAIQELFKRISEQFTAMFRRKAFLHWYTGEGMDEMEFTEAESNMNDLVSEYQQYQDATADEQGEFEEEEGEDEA
tubulin, sequence (P81947 whole entry, further chain): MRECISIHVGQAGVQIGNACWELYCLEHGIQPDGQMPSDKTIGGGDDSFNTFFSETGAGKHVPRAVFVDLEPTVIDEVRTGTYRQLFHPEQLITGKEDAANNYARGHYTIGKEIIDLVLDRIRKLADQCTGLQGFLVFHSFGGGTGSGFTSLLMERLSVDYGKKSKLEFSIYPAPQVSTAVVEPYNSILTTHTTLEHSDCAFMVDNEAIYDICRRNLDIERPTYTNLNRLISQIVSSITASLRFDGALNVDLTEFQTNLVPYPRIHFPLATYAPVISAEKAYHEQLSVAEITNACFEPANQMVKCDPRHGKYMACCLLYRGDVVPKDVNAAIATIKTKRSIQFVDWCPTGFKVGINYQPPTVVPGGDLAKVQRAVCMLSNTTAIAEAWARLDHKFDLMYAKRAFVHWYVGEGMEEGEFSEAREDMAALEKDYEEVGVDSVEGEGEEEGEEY

Row | Compound | tubulin depolymerization in HuVEC cells (HuVEC cells) | MT nucleation (MAP-rich microtubules) | tolerability ([1]; i.v. infusion 5-10 mg/kg) | effect on tumor vasculature ([1]; single i.v. treatment) | tumor blood flow (P22 rat sarcoma [2]; 1 hour after administration) | tumor blood flow (P22 rat sarcoma [2]; 24 hours later) | Tumor Growth Inhibition (%) KPU-02 + Reference [3] | Tumor Regression (#/total) NPI + Reference [3] | Tumor Growth Inhibition (%) KPU-02 + Reference [4] | Tumor Regression (#/total) NPI + Reference [4] | Tumor Regression (#/total) NPI + Reference (HT-29 human colon tumor; ip, 7.5 mg/kg) | dose-dependent effect in the HT-29 model (HT-29 human colon tumor; with CPT-11) | MT dynamic instability [5] | mitotic cells containing asters or foci of tubulin (MCF7 cells) | Tumor Regression (#/total) NPI + Reference (MCF-7 human breast tumor) | tumor necrosis (P22 rat sarcoma [6]) | binding to tubulin by photoaffinity labeling (tubulin) | pIC50 (HT-29 human colon cells) | tubulin polymerization [7]
1 | CC(C)(C)c1[nH]cnc1/C=c1\[nH]c(=O)/c(=C/c2ccccc2)[nH]c1=O [KPU-02] | rapidly induce tubulin depolymerization | did not affect MT nucleation | well tolerated | rapid collapse of the central vasculature | 23 % of vehicle | 59 % vehicle | 74% | 0/10 | 71% | 0/10 | 4/30 | 7.5 mg/kg was statistically greater than 2.5 mg/kg | did not have a measurable effect on MT dynamic instability | 75% | 3/20 | dose-dependent tumor necrosis |  |  | 
2 | CC(C)(C)c1ocnc1/C=c1\[nH]c(=O)/c(=C/c2cccc(C(=O)c3ccc(CNC(=O)CCCC[C@@H]4SC[C@@H]5NC(=O)N[C@@H]54)cc3)c2)[nH]c1=O [KPU-244-B1] |  |  |  |  |  |  |  |  |  |  |  |  |  |  |  |  | selectively binds and covalently reacts with tubulin at the colchicine binding site | 6.04 | inhibit tubulin polymerization
